Reference: US5594012A, “Amino acid derivatives and anti-active oxygen agents” (Ajinomoto Co., Inc., priority 1992, dated 1997)

Assays:
[1] = test system: lipid peroxidation in murine brain homogenate; assay: Inhibitory effects on metal ion-induced lipid peroxidation (murine brain homogenate); assay type: biochemical, murine (C57 black mouse); conditions: 1 mM test compound; 100 μM ammonium iron (II) sulphate; 37° C., 30 minutes; pH 7.2 to 7.8
Procedure: Test for Inhibitory Effects on Metal Ion-induced Lipid Peroxidation
(§1) The test was carried out according to the method described in Method in Enzymol., Vol. 52, page 302, 1978. A C57 black mouse was killed by cervical dislocation, and the whole brain extracted from the dissected head was washed with 20 mM phosphate buffer (hereinafter referred to as "PBS-2"). Then, the brain was added with PBS-2 in an amount of 19 times its wet weight, and the mixture was disrupted and homogenized with a homogenizer "Polytron" (manufactured by Kinematica). The thus prepared 5% solution of the murine brain homogenate in PBS-2 was diluted 1:5 with fresh PBS-2. To 800 μl of the resulting 1% solution of the murine brain homogenate in PBS-2 (protein content: 0.8 to 1.0 mg/ml) were successively added 100 μl of a PBS-2 solution of each of the test compounds shown in Table 7 below and 100 μl of an aqueous solution of ammonium iron (II) sulphate. The final concentration of the test compounds and ammonium iron (II) sulphate were adjusted to be 1 mM and 100 μM, respectively. If test compounds were not soluble in PBS-2 alone, an aqueous sodium hydroxide solution or DMSO was added. The pH of the solution was adjusted to 7.2 to 7.8.
The solution after heated at 37° C. for 30 minutes was added with 2.0 ml of an aqueous solution of thiobarbituric acid/trichloroacetic acid/hydrochloric acid, and the mixture was heated in a boiling water bath for 15 minutes. After ice-cooling, the solution was extracted with 1.0 ml of 1-butanol to prepare a sample for determining the peroxide lipid in the same way as described in Test Example 1.
(§2) [formula] A1 : Absorbance when a test compound was added. A2 : Absorbance when a test compound was not added.
A3 : Absorbance when a test compound was not added and heating at 37° C. for 30 minutes was not carried out.

[2] = test system: lipid peroxidation in homogenate of murine swiss 3T3 cells; assay: Inhibitory effects on UV-induced lipid peroxidation (homogenate of murine swiss 3T3 cells); assay type: biochemical; conditions: 1 mM test compound; UVB 0.4 mW/cm^2, 90 min; pH 7.2 to 7.8; TBA, 535 nm
Procedure: Test for Inhibitory Effects on UV-induced Lipid Peroxidation
The test was carried out on the basis of the methods described in Biochim. Biophys. […] Namely, 12 μl of an aqueous sodium hydroxide solution of each of the test compounds shown in Table 5 below was added to 1.2 ml of a homogenate of murine swiss 3T3 cells (i.e. a kind of murine skin cells) prepared by a conventional method in 20 mM phosphate buffer (protein content: 1.5 to 1.8 mg/ml). The final concentration of the test compounds was adjusted to be 1 mM and the pH of the solution was adjusted to 7.2 to 7.8. If test compounds were not soluble in an aqueous sodium hydroxide solution, they were dissolved in N,N-dimethyl sulfoxide (DMSO).
This solution (1.1 ml) was irradiated with UV rays (0.4 mW/cm^2, 90 min.) using a UVB lamp "EB-280C/J" (manufactured by Spectronics). To an aliquot (1.0 ml) of this solution were successively added 0.2 ml of an aqueous solution of sodium dodecyl sulfate and 1.0 ml of an aqueous solution of thiobarbituric acid/trichloroacetic acid/hydrochloric acid, and the mixed solution was heated in a boiling water bath for 15 minutes. After ice-cooling, the solution was extracted with 1.0 ml of 1-butanol to prepare a sample for determining peroxide lipid as absorbance at a wavelength of 535 nm using a spectrophotometer "Model 320" (manufactured by Hitachi).
as §2
A3 : Absorbance when a test compound was not added and UV rays were not irradiated.

[3] = test system: lipid peroxidation in murine brain homogenate; assay: Inhibitory effects on lipid peroxidation (murine brain homogenate); assay type: biochemical, murine (C57 black mouse); conditions: 30 μM test compound; no added iron; 37° C., 60 minutes; pH 7.2 to 7.8
Procedure: as §1
Test for Inhibitory Effects on Lipid Peroxidation
To 900 μl of a 5% solution of the murine brain homogenate in PBS-2 prepared in the same way as described in Test Example 3 was added 100 μl of a PBS-2 solution of each of the test compounds shown in Table 8 below. The final concentration of the test compounds was adjusted to be 30 μM. If test compounds were not soluble in PBS-2 alone, an aqueous solution of sodium hydroxide or DMSO was added. The pH of the solution was adjusted to 7.2 to 7.8.
The solution after heated at 37° C. for 60 minutes was added with 1.0 ml of an aqeuous solution of thiobarbituric acid/trichloroacetic acid/hydrochloric acid, and the mixture was heated in a boiling water bath for 15 minutes. After ice-cooling, the solution was extracted with 2.0 ml of 1-butanol to prepare a sample for determining the lipid peroxide in the same way as described in Test Example 1. […] [formula] A4 : Absorbance when a test compound was added. A5 : Absorbance when a test compound was not added.
A6 : Abosrbance when a test compound was not added and heating at 37° C. for […] was not carried out.

| Molecule | % Inhibition of metal ion-induced lipid peroxidation [1] | also measured |
| --- | --- | --- |
| COC(=O)C(CO)N=Cc1c(O)ccc2ccccc12 (stereo not shown) [Synthesis Example 40] | 88% | – |
| O=C(O)C(Cc1ccccc1)N=Cc1c(O)ccc2ccccc12 (stereo not shown) [Synthesis Example 54] | 83% | – |
| CSCCC(N=Cc1c(O)ccc2ccccc12)C(=O)O (stereo not shown) [Synthesis Example 42] | 86% | – |
| O=C(O)C(Cc1ccccc1)NCc1ccccc1O (stereo not shown) [Synthesis Example 7] | – | % Inhibition of UV-induced lipid peroxidation [2]: 48% |
| O=C(O)CCNCc1ccccc1O [Synthesis Example 12] | – | % Inhibition of UV-induced lipid peroxidation [2]: 29% |
| Cc1ncc(CO)c(CNC(CC(=O)O)C(=O)O)c1O (stereo not shown) [Synthesis Example 20] | – | % Inhibition of lipid peroxidation [3]: 91% |
| COC(=O)CCC(N=Cc1c(O)ccc2ccccc12)C(=O)OC (stereo not shown) [Synthesis Example 49] | 81% | – |
| Cc1ncc(CO)c(CNC(C)C(=O)O)c1O (stereo not shown) [Synthesis Example 17] | – | % Inhibition of lipid peroxidation [3]: 56% |
| O=C(O)C(Cc1ccc(O)c(O)c1)N=Cc1c(O)ccc2ccccc12 (stereo not shown) [Synthesis Example 32] | 83% | – |
| NC(=O)CC(N=Cc1c(O)ccc2ccccc12)C(=O)O (stereo not shown) [Synthesis Example 44] | 90% | – |
| CCC(C)C(N=Cc1c(O)ccc2ccccc12)C(=O)O (stereo not shown) [Synthesis Example 39] | 50% | – |
| CC(C)C(NCc1ccccc1O)C(=O)O (stereo not shown) [Synthesis Example 8] | – | % Inhibition of UV-induced lipid peroxidation [2]: 60% |
| Cc1ncc(CO)c(CNC(CCCNC(=N)N)C(=O)O)c1O (stereo not shown) [Synthesis Example 24] | – | % Inhibition of lipid peroxidation [3]: 85% |
| OCCNCc1ccccc1O [Synthesis Example 14] | – | % Inhibition of UV-induced lipid peroxidation [2]: 45% |
| Vitamin E [reference compound] | 29% | % Inhibition of lipid peroxidation [3]: 30% |
| O=C1O[C@H]([C@@H](O)CO)C(O)=C1O [Vitamin C, reference compound] | -23% | % Inhibition of lipid peroxidation [3]: -22% |
| O=S(=O)(O)CCN=Cc1c(O)ccc2ccccc12 [Synthesis Example 65] | 73% | – |
| Oc1ccc2ccccc2c1C=NCCc1c[nH]c2ccccc12 [Synthesis Example 56] | 57% | – |
| O=C(O)CN=Cc1c(O)ccc2ccccc12 [Synthesis Example 34] | 57% | – |
| O=S(=O)(O)CCNCc1ccccc1O [Synthesis Example 13] | – | % Inhibition of UV-induced lipid peroxidation [2]: 53% |
| O=C(O)CCC(NCc1ccccc1O)C(=O)O (stereo not shown) [Synthesis Example 5] | – | % Inhibition of UV-induced lipid peroxidation [2]: 52% |
| O=C(O)CNCc1ccccc1O [Synthesis Example 9] | – | % Inhibition of UV-induced lipid peroxidation [2]: 60% |
| CC(O)C(NCc1ccccc1O)C(=O)O (stereo not shown) [Synthesis Example 10] | – | % Inhibition of UV-induced lipid peroxidation [2]: 56% |
| O=C(O)C(Cc1c[nH]cn1)N=Cc1cc(Cl)ccc1O (stereo not shown) [Synthesis Example 61] | 45% | – |
| Cc1ncc(CO)c(CNC(Cc2ccccc2)C(=O)O)c1O (stereo not shown) [Synthesis Example 25] | – | % Inhibition of lipid peroxidation [3]: 55% |
| OCC(Cc1c[nH]cn1)N=Cc1c(O)ccc2ccccc12 (stereo not shown) [Synthesis Example 33] | 95% | – |
| CC(O)C(N=Cc1c(O)ccc2ccccc12)C(=O)O (stereo not shown) [Synthesis Example 41] | 79% | – |

| Molecule | % Inhibition of metal ion-induced lipid peroxidation [1] | also measured |
| --- | --- | --- |
| Cc1ncc(CO)c(CNC(Cc2c[nH]cn2)C(N)=O)c1O (stereo not shown) [Synthesis Example 23] | – | % Inhibition of lipid peroxidation [3]: 39% |
| CC(NCc1ccccc1O)C(=O)O (stereo not shown) [Synthesis Example 6] | – | % Inhibition of UV-induced lipid peroxidation [2]: 66% |
| NC(=O)CCC(N=Cc1c(O)ccc2ccccc12)C(=O)O (stereo not shown) [Synthesis Example 51] | 84% | – |
| O=C(O)CN(CCN(CC(=O)O)CC(=O)O)CC(=O)O [EDTA, reference compound] | – | % Inhibition of UV-induced lipid peroxidation [2]: 34% |
| O=C(O)CC(N=Cc1c(O)ccc2ccccc12)C(=O)O (stereo not shown) [Synthesis Example 43] | 40% | – |
| O=C(O)C(CO)N=Cc1cc([N+](=O)[O-])ccc1O (stereo not shown) [Synthesis Example 59] | 11% | – |
| O=C(O)C(Cc1c[nH]c2ccccc12)N=Cc1c(O)ccc2ccccc12 (stereo not shown) [Synthesis Example 55] | 87% | – |
| CC(C)C(N=Cc1cc(Cl)ccc1O)C(=O)O (stereo not shown) [Synthesis Example 64] | 60% | – |
| CC(N=Cc1c(O)ccc2ccccc12)C(=O)O (stereo not shown) [Synthesis Example 36] | 80% | – |
| NC(=O)CNCc1ccccc1O [Synthesis Example 11] | – | % Inhibition of UV-induced lipid peroxidation [2]: 77% |
| O=C(O)C(Cc1c[nH]cn1)N=Cc1cc(Br)ccc1O (stereo not shown) [Synthesis Example 62] | 45% | – |
| CCC(C)C(N=Cc1c(CO)cnc(C)c1O)C(=O)O (stereo not shown) [Synthesis Example 72] | 14% | – |
| CC(C)C(CO)N=Cc1c(O)ccc2ccccc12 (stereo not shown) [Synthesis Example 37] | 30% | – |
| O=C(O)CNC(=O)CN=Cc1c(O)ccc2ccccc12 [Synthesis Example 66] | 20% | – |
| COC(=O)C(Cc1c[nH]cn1)N=Cc1c(O)ccc2ccccc12 (stereo not shown) [Synthesis Example 45] | 85% | – |
| O=C(O)C(CO)N=Cc1cc(Br)ccc1O (stereo not shown) [Synthesis Example 58] | 40% | – |
| O=C(CCC(N=Cc1c(O)ccc2ccccc12)C(=O)O)NO (stereo not shown) [Synthesis Example 50] | 85% | – |
| O=C(O)C(CO)N=Cc1cc(Cl)ccc1O (stereo not shown) [Synthesis Example 57] | 44% | – |
| Oc1ccccc1CNCCc1c[nH]cn1 [Synthesis Example 15] | – | % Inhibition of UV-induced lipid peroxidation [2]: 51% |
| Oc1ccc2ccccc2c1C=NCCc1c[nH]cn1 [Synthesis Example 46] | 80% | – |
| NC(=O)CN=Cc1c(O)ccc2ccccc12 [Synthesis Example 35] | 16% | – |
| COC(=O)C(Cc1ccccc1)NC(=O)C(CC(=O)O)N=Cc1c(O)ccc2ccccc12 (stereo not shown) [Synthesis Example 67] | 38% | – |
| Cc1ncc(CO)c(CNC(Cc2ccc(O)cc2)C(=O)O)c1O (stereo not shown) [Synthesis Example 26] | – | % Inhibition of lipid peroxidation [3]: 39% |
| COc1cccc(C=NC(Cc2c[nH]cn2)C(=O)O)c1O (stereo not shown) [Synthesis Example 63] | 60% | – |
| Cc1ncc(CO)c(CNC(C(=O)O)C(C)O)c1O (stereo not shown) [Synthesis Example 19] | – | % Inhibition of lipid peroxidation [3]: 59% |
| CC(C)CC(N=Cc1c(O)ccc2ccccc12)C(=O)O (stereo not shown) [Synthesis Example 38] | 74% | – |
